Experiments:
[1] = Apparent volume of distribution in mouse plasma at 5 mg/kg, iv or 15 mg/kg, po by HPLC/MS analysis; format: ADME, organism-based; conditions: read-out: Vz
[2] = AUC in mouse plasma at 15 mg/kg, po by HPLC/MS analysis; format: ADME, organism-based
[3] = Half life in mouse plasma at 15 mg/kg, po by HPLC/MS analysis; format: ADME, organism-based
[4] = Oral bioavailability in mouse plasma at 15 mg/kg by HPLC/MS analysis; format: ADME, organism-based
[5] = molecular target: T1, Phosphatidylinositol 4,5-bisphosphate 3-kinase catalytic subunit delta isoform (Homo sapiens, UniProt O00329); assay: Inhibition of PI3Kdelta (unknown origin) using biotinylated PIP2 as substrate in presence of streptavidin-APC by FRET assay
T1 sequence (O00329 whole entry): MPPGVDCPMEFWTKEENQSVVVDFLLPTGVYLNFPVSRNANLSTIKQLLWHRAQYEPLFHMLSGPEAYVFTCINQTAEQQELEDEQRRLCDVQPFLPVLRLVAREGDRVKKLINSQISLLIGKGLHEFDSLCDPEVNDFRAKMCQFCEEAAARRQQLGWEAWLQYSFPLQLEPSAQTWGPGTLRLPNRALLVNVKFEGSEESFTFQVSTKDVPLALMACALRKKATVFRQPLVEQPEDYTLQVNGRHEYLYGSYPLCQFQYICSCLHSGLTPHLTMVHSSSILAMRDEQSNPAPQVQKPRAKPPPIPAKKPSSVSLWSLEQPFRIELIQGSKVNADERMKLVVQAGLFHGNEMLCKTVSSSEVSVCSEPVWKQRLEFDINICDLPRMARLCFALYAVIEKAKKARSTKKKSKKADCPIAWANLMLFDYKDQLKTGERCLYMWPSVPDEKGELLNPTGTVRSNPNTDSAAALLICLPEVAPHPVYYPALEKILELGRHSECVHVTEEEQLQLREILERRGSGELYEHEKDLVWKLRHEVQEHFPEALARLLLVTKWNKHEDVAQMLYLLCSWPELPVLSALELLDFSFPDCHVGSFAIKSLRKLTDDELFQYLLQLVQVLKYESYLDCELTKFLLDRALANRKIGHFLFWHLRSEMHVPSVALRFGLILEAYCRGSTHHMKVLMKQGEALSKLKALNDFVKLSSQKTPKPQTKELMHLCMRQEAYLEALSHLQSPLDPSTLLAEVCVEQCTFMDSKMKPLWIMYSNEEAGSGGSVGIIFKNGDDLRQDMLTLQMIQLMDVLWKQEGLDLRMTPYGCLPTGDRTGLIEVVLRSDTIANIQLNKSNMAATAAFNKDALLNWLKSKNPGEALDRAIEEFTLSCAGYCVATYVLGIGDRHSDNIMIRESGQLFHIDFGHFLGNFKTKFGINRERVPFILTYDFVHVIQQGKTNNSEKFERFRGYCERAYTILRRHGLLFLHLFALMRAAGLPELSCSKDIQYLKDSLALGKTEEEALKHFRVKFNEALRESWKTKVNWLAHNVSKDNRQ

[6] = Clearance in mouse plasma at 5 mg/kg, iv or 15 mg/kg, po by HPLC/MS analysis; format: ADME, organism-based
[7] = AUC in mouse plasma at 10 mg/kg, po by HPLC/MS analysis; format: ADME, organism-based; conditions: plasma, read-out: AUC
[8] = Clearance in mouse plasma at 2 mg/kg, iv or 10 mg/kg, po by HPLC/MS analysis; format: ADME, organism-based; conditions: in vivo
[9] = Drug metabolism in mouse liver microsomes assessed as compound oxidation by measuring parent compound remaining at 1 uM after 30 mins in presence of NADPH by LC-MS/MS analysis; format: ADME; conditions: for remaining at 0.5 h, 1 µM: liver microsomes, read-out: Stability
[10] = Oral bioavailability in mouse plasma at 10 mg/kg by HPLC/MS analysis; format: ADME, organism-based; conditions: plasma
[11] = Drug metabolism in human liver microsomes assessed as compound oxidation by measuring parent compound remaining at 1 uM after 30 mins in presence of NADPH by LC-MS/MS analysis; format: ADME; conditions: liver microsomes, read-out: Stability
[12] = Drug metabolism in human liver microsomes assessed as UGT-mediated compound glucuronidation by measuring parent compound remaining at 5 uM after 30 mins in presence of UDPGA by LC-MS/MS analysis; format: ADME; conditions: read-out: Stability
[13] = Efflux ratio of apparent permeability from basolateral to apical side over apical to basolateral side in human Caco2 cells; format: ADME, cell-based; conditions: caco-2
[14] = Drug metabolism in mouse liver microsomes assessed as UGT-mediated compound glucuronidation by measuring parent compound remaining at 5 uM after 30 mins in presence of UDPGA by LC-MS/MS analysis; format: ADME; conditions: liver microsomes, read-out: Stability
[15] = molecular target: T2, Tyrosine-protein kinase BTK (Homo sapiens, UniProt Q06187)
T2 sequence (Q06187 whole entry): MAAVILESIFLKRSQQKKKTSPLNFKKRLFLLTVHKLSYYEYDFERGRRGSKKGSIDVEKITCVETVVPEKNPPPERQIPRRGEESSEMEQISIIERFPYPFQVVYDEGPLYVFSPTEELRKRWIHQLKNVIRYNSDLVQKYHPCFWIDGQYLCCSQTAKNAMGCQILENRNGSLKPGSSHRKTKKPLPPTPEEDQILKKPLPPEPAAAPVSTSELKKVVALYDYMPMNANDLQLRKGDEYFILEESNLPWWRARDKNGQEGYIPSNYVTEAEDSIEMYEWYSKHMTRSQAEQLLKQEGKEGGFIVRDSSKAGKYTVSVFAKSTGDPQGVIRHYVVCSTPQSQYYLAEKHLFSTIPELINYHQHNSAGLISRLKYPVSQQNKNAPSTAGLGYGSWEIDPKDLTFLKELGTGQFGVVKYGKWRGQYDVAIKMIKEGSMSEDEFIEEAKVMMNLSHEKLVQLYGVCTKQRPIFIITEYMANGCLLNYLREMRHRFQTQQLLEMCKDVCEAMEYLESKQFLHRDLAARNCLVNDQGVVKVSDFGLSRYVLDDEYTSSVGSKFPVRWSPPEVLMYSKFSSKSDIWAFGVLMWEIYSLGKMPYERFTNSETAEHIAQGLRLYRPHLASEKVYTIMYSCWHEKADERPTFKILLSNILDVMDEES

[16] = Protein binding in mouse plasma; format: ADME, cell-free; conditions: read-out: PPB (converted)
[17] = Half life in mouse plasma at 10 mg/kg, po by HPLC/MS analysis; format: ADME, organism-based; conditions: plasma
[18] = Apparent volume of distribution in mouse plasma at 2 mg/kg, iv or 10 mg/kg, po by HPLC/MS analysis; format: ADME, organism-based; conditions: in vivo
[19] = Drug metabolism in dog liver microsomes assessed as compound oxidation by measuring parent compound remaining at 1 uM after 30 mins in presence of NADPH by LC-MS/MS analysis; format: ADME, Canis lupus familiaris; conditions: 0.5 h
[20] = Drug metabolism in rat liver microsomes assessed as compound oxidation by measuring parent compound remaining at 1 uM after 30 mins in presence of NADPH by LC-MS/MS analysis; format: ADME; conditions: liver microsomes, read-out: Stability
[21] = molecular target: T2, Tyrosine-protein kinase BTK; conditions: at 100 nM
[22] = molecular target: T3, Phosphatidylinositol 4,5-bisphosphate 3-kinase catalytic subunit delta isoform (Homo sapiens) (UniProt O00329); assay: Inhibition of PI3Kdelta (unknown origin) using biotinylated PIP2 as substrate at 100 nM in presence of streptavidin-APC by FRET assay
T3 sequence (whole entry): T1 sequence (O00329 whole entry)

Homo sapiens [23] = species: Homo sapiens; assay: Selectivity ratio of IC50 for PI3Kalpha (unknown origin) to IC50 for PI3Kdelta (unknown origin)
Homo sapiens [24] = species: Homo sapiens; assay: Selectivity ratio of IC50 for PI3Kbeta (unknown origin) to IC50 for PI3Kdelta (unknown origin)
Homo sapiens [25] = species: Homo sapiens; assay: Selectivity ratio of IC50 for PI3Kgamma (unknown origin) to IC50 for PI3Kdelta (unknown origin)
Homo sapiens [26] = species: Homo sapiens; assay: Selectivity ratio of IC50 for human BMX to IC50 for human BTK
Homo sapiens [27] = species: Homo sapiens; assay: Selectivity ratio of IC50 for human TEC to IC50 for human BTK

Work on `Nc1ncnc2c1c(-c1cc(O)cc(Cl)c1)nn2C1Cc2ccccc2C1` yielded a Vd [1] of 11.5 L/kg, an AUC [2] of 0.033 µM·h and a half-life [3] of 36 min. For the same compound, the bioavailability [4] was 0.8%, the IC50 [5] was 4 nM and the clearance [6] was 156 mL/min/kg.
Compound `Nc1ccc2c(c1)CC(n1nc(-c3cc(F)c4c(c3)NCCO4)c3c(N)ncnc31)C2` (stereo in doubt; (+)-32) [listing 1 of 2 here] has an AUC [7] of 9.28 µM·h, a CL [8] of 24.3 mL/min/kg and a Stability ([9]; microsomes, 0.5 h, 1 µM) of 28%. For the same compound, the bioavailability [10] was 57%, the remaining at 0.5 h, 1 µM [11] was 71% and the remaining at 0.5 h, 5 µM [12] was 91%. It also gave an IC50 [5] of 47 nM, an efflux ratio [13] of 1.3 and a remaining at 0.5 h, 5 µM [14] of 93%. The IC50 [15] was 24 nM, the fraction unbound [16] was 0.02 and the half-life [17] was 72 min. It also gave a Vz [18] of 0.58 L/kg, a Stability [19] of 65% and a remaining at 0.5 h, 1 µM [20] of 45%.
Compound `COc1ccc(-c2nn(C3Cc4ccccc4C3)c3ncnc(N)c23)cc1N` has an inhibition [21] of 72%, an inhibition [22] of 14% and a remaining at 0.5 h, 5 µM [14] of 89%.
In the case of `Cc1ccc(-c2nn(C3Cc4ccccc4C3)c3ncnc(N)c23)cc1O`, the IC50 [5] is reported as 172 nM and the IC50 [15] is reported as 43 nM.
`Nc1ccc2c(c1)CC(n1nc(-c3cc(F)c4c(c3)NCCO4)c3c(N)ncnc31)CC2` (single isomer, unassigned; (+)) showed an IC50 [5] of 55 nM and an IC50 [15] of 176 nM.
With `Nc1ccc2c(c1)CC(n1nc(-c3cc(F)c4c(c3)NCCO4)c3c(N)ncnc31)C2` (stereo in doubt; (+)-32) [listing 2 of 2 here] the Ratio IC50 (Homo sapiens [23]) was 6, the Ratio IC50 (Homo sapiens [24]) was 34 and the Ratio IC50 (Homo sapiens [25]) was 2. It also gave a Ratio IC50 (Homo sapiens [26]) of 4 and a Ratio IC50 (Homo sapiens [27]) of 20.
Compound `Nc1ccc2c(c1)CC(n1nc(-c3cc(F)c4c(c3)NCCO4)c3c(N)ncnc31)C2` (single isomer, unassigned; (-)) has a Ratio IC50 (Homo sapiens [23]) of 17, a Ratio IC50 (Homo sapiens [24]) of 44 and a Ratio IC50 (Homo sapiens [25]) of 7. For the same compound, the Ratio IC50 (Homo sapiens [26]) was 1 and the Ratio IC50 (Homo sapiens [27]) was 7.
For `Nc1ncnc2c1c(-c1cc(O)c(F)c(F)c1)nn2C1Cc2ccccc2C1`, the Vd [1] was 12.1 L/kg, the AUC [2] was 0.073 µM·h and the remaining at 0.5 h, 1 µM [9] was 78%. It also gave an inhibition [21] of 74%, a remaining at 0.5 h, 1 µM [11] of 75% and a remaining at 0.5 h, 5 µM [12] of 3.7%. For the same compound, the half-life [3] was 57 min, the bioavailability [4] was 1.7% and the IC50 [5] was 3 nM. The clearance [6] was 154 mL/min/kg, the inhibition [22] was 87% and the remaining at 0.5 h, 5 µM [14] was 5.1 to 7.1%.
Compound `Nc1ncnc2c1c(-c1cc(O)cc(F)c1)nn2C1Cc2ccccc2C1` has a Vd [1] of 6.01 L/kg, an AUC [2] of 0.177 µM·h and a remaining at 0.5 h, 1 µM [9] of 25%. It also gave a remaining at 0.5 h, 1 µM [11] of 67%, a remaining at 0.5 h, 5 µM [12] of 1.3% and a half-life [3] of 186 min. The bioavailability [4] was 2.2%, the IC50 [5] was 8 nM and the clearance [6] was 85 mL/min/kg. For the same compound, the remaining at 0.5 h, 5 µM [14] was < 1%.
Compound `Nc1ncnc2c1c(-c1cccc(O)c1)nn2C1Cc2ccccc2C1` has an inhibition [21] of 66% and an inhibition [22] of 41%.
For `Nc1ncnc2c1c(-c1ccc3nc[nH]c3c1)nn2C1Cc2ccccc2C1`, the inhibition [21] was 9.6% and the inhibition [22] was 78%.
Work on `Nc1ncnc2c1c(-c1cc(F)c(F)c(F)c1)nn2C1Cc2ccccc2C1` yielded an inhibition [21] of 21%, an inhibition [22] of 21% and a remaining at 0.5 h, 5 µM [14] of 85%.
In the case of `Nc1ncnc2c1c(-c1ccc(F)c(O)c1)nn2C1Cc2ccccc2C1`, the Vd [1] is reported as 5.45 L/kg, the AUC [2] is reported as 0.211 µM·h and the half-life [3] is reported as 48 min. It also gave a bioavailability [4] of 3.7% and a clearance [6] of 122 mL/min/kg.

— ChEMBL document CHEMBL3864190, “Discovery of Pyrazolopyrimidine Derivatives as Novel Dual Inhibitors of BTK and PI3Kδ” (ACS Med Chem Lett, 2016)
